Experimental data taken from US20180296456A1, “Decapeptide-12 Modulation of Sirtuin Gene Expression in Epidermal Keratinocyte Progenitors” (Escape Therapeutics, Inc., priority 2017, published 2018).
Values joined by “and” are separate entries in the source; they are usually repeats but may differ in a detail not shown here. Identical values can stand only once. Ends that are not written are not given here.

Assays:
SIRT2 = SIRT2 transcription, semi-quantitative RT-PCR in human epidermal progenitors; assay type: cell-based; details: 72 h
Experimental: (§1) Human neonatal epidermal progenitors (Thermo Fisher Scientific, NY) were seeded in 6-well plates at a density of 2×10^5 cells/well. Each well received 2 ml of Epilife media containing 60 μM calcium chloride (Thermo Fisher Scientific, NY). Plates were incubated in a humidified chamber at 37 degrees Celsius and 5 percent CO2. Twenty-four hours later, cells were treated with various concentrations of oxyresveratrol or decapeptide-12 dissolved in PBS containing 5 percent DMSO. Control wells received vehicle only (5 percent DMSO and PBS). Final concentration of DMSO in each well was 0.05 percent.
(§2) After a 72 hour incubation period, cells were trypsinized and total RNA extracted, using RNeasy kit (Qiagen, Valencia, Calif.) according to the manufacturer's protocol.
(§3) RNA concentration was determined using nanodrop (Thermo fisher scientific, NY). Two μg of total RNA were used to synthesize cDNA using oligo dT primers and TaqMan reverse transcription reagents (Thermo fisher scientific, NY). The reaction was carried out in DNA Engine Peltier Thermal Cycler (Bio-Rad, Hercules, Calif.). The annealing temperature was 25 degrees Celsius for 10 minutes, followed by first strand synthesis at 48 degrees Celsius for 1 hour, and heat inactivation at 95 degrees Celsius for 5 minutes.
(§4) The SIRT1-7 primers (table 1) were designed using Primer3. The semi-quantitative PCR reactions were performed on a DNA Engine Peltier Thermo Cycler (Bio-Rad, Hercules, Calif.). PCR was carried under the following conditions: denaturation at 94 degrees Celsius for 2 minutes and primer extension at 54 degrees Celsius for 30 seconds in 34 cycles for SIRT 1-7 and the housekeeping gene 18S.
(§5) Samples were run and resolved on a 1.5 percent agarose gel containing 0.5 μg/ml of ethidium bromide and imaged using the FluorChem HD2 Imaging System (Protein simple, San Jose, Calif.). Densitometry analysis was carried out using the AlphaEase FC software (Protein simple, San Jose, Calif.). Intensity ratios were calculated as the intensity value for each gene divided by the intensity value of the internal control gene 18S.
(§6) The effect of the decapeptides P4, P4A, P4B, and P4C upon the transcription levels of sirtuins 1-7 was evaluated. Table 4 summarizes transcription levels for all four decapeptides with the corresponding genes, at tested concentrations of: 10, 30, 50, 100, and 300 (all in μM).

[1] = MTT cell proliferation assay, melanoblasts; assay type: cell-based, human; details: human, MTT, 72 h, read-out: melanoblast proliferation rate after 72 hours
Experimental: (§7) Proliferation rates for three human cell lines (epidermal progenitors, melanoblasts, and fibroblasts) were determined using a TACS® MTT Cell Proliferation Kit. Cells were seeded at 2.5×10^4/well in 96-well plates in a humidified atmosphere with 5 percent CO2 at 37 degrees Celsius. Twenty-four hours later, the decapeptides were added to the corresponding wells at varying concentrations and incubated for 72 hours. The remainder of the procedure was performed following the manufacturer's protocol.

SIRT4 = SIRT4 transcription, semi-quantitative RT-PCR in human epidermal progenitors; assay type: cell-based; details: 72 h
Experimental: as §1, §2, §3, §4, §5, §6

[2] = MTT cell proliferation assay, fibroblasts; assay type: cell-based, human; details: human, MTT, 72 h, read-out: fibroblast proliferation rate after 72 hours
Experimental: as §7

SIRT1 = SIRT1 transcription, semi-quantitative RT-PCR in human epidermal progenitors; assay type: cell-based; details: 72 h
Experimental: as §1, §2, §3, §4, §5, §6

YRSRKYSSWY [decapeptide-12, YRSRKYSSWY]
SIRT2 transcription increase relative to control (SIRT2; 30 μM): 11.2 ± 3.7%
SIRT2 transcription increase relative to control (SIRT2; 30 μM, listed as P4): 11 ± 4%
SIRT2 transcription increase relative to control (SIRT2; 50 μM): 21.5 ± 4.9%
SIRT2 transcription increase relative to control (SIRT2; 50 μM, listed as P4): 22 ± 5%
SIRT2 transcription increase relative to control (SIRT2; 100 μM, listed as Deca): 35.4 ± 5.5%
SIRT2 transcription increase relative to control (SIRT2; 100 μM, listed as P4): 35 ± 5%
SIRT2 transcription increase relative to control (SIRT2; 300 μM): 61.1± 6.8%
SIRT2 transcription increase relative to control (SIRT2; 300 μM, listed as P4): 61 ± 7%
SIRT2 transcription increase relative to control (SIRT2; 500 μM): 76 ± 6.1%
SIRT2 transcription increase relative to control (SIRT2; 1000 μM): 76 ± 7.1%
viability at 72 h, 3 µM ([1]; 3 μM): 100%
viability at 72 h, 10 µM ([1]; 10 μM): 100%
viability at 72 h, 30 µM ([1]; 30 μM): 99 ± 1%
viability at 72 h, 50 µM ([1]; 50 μM): 98 ± 1%
viability at 72 h, 100 µM ([1]; 100 μM): 97 ± 1%
viability at 72 h, 300 µM ([1]; 300 μM): 97 ± 1%
viability at 72 h, 500 µM ([1]; 500 μM): 95 ± 2%
viability at 72 h, 1000 µM ([1]; 1000 μM): 95 ± 2%
SIRT4 transcription increase relative to control (SIRT4; 3 μM): 3 ± 1%
SIRT4 transcription increase relative to control (SIRT4; 10 μM): 8.1 ± 4%^
SIRT4 transcription increase relative to control (SIRT4; 10 μM, listed as P4): 8 ± 3%
SIRT4 transcription increase relative to control (SIRT4; 30 μM): 12.1 ± 7%
SIRT4 transcription increase relative to control (SIRT4; 30 μM, listed as P4): 12 ± 7%
SIRT4 transcription increase relative to control (SIRT4; 50 μM): 41.2 ± 13.1%
SIRT4 transcription increase relative to control (SIRT4; 50 μM, listed as P4): 41 ± 13%
SIRT4 transcription increase relative to control (SIRT4; 100 μM, listed as Deca): 71.4 ± 14.1%
SIRT4 transcription increase relative to control (SIRT4; 100 μM, listed as P4): 71 ± 14%
SIRT4 transcription increase relative to control (SIRT4; 300 μM): 115 ± 11.7%
SIRT4 transcription increase relative to control (SIRT4; 300 μM, listed as P4): 115 ± 12%
SIRT4 transcription increase relative to control (SIRT4; 500 μM): 145 ± 12.7%
SIRT4 transcription increase relative to control (SIRT4; 1000 μM): 151 ± 13.4%
viability at 72 h, 3 µM ([2]; 3 μM): 100%
viability at 72 h, 10 µM ([2]; 10 μM): 99 ± 1%
viability at 72 h, 30 µM ([2]; 30 μM): 99 ± 1%
viability at 72 h, 50 µM ([2]; 50 μM): 98 ± 1%
viability at 72 h, 100 µM ([2]; 100 μM): 97 ± 1%
viability at 72 h, 300 µM ([2]; 300 μM): 97 ± 1%
viability at 72 h, 500 µM ([2]; 500 μM): 97 ± 2%
viability at 72 h, 1000 µM ([2]; 1000 μM): 96 ± 2%
SIRT1 transcription increase relative to control (SIRT1; 3 μM): 3 ± 1%
SIRT1 transcription increase relative to control (SIRT1; 10 μM): 12.2 ± 3.1%^
SIRT1 transcription increase relative to control (SIRT1; 10 μM, listed as P4): 12 ± 3%
SIRT1 transcription increase relative to control (SIRT1; 30 μM): 34 ± 6.7%
SIRT1 transcription increase relative to control (SIRT1; 30 μM, listed as P4): 34 ± 7%
SIRT1 transcription increase relative to control (SIRT1; 50 μM): 79.2 ± 12%
SIRT1 transcription increase relative to control (SIRT1; 50 μM, listed as P4): 79 ± 12%
SIRT1 transcription increase relative to control (SIRT1; 100 μM): 141±11% and 141%
SIRT1 transcription increase relative to control (SIRT1; 100 μM, listed as Deca): 141.2 ± 11%
SIRT1 transcription increase relative to control (SIRT1; 100 μM, listed as P4): 141 ± 11%
SIRT1 transcription increase relative to control (SIRT1; 300 μM): 188 ± 12%^
SIRT1 transcription increase relative to control (SIRT1; 300 μM, listed as P4): 188 ± 12%
SIRT1 transcription increase relative to control (SIRT1; 500 μM): 205 ± 13.3%
SIRT1 transcription increase relative to control (SIRT1; 1000 μM): 213%
SIRT1 transcription increase relative to control (SIRT1; 1000 μM, listed as Deca): 213 ± 13.4%
